pEC50: −log10 of the molar value. A value given as a limit tells only on which side of the number the result lay.

The subject of one assay is K-Ras G12C (NCI-H358 cells). The assay is described as follows: Potency assay: pERK in NCI-H358 cells. It is filed as cell-based, human. Particulars: Homo sapiens, NCI-H358, 4 h, read-out: pERK EC50 (H358 KRAS G12C). The protocol:
The purpose of this assay is to measure the ability of test compounds to inhibit K-Ras in cells. […] This procedure measures a decrease in cellular pERK in response to test compounds. The procedure described below in NCI-H358 cells is applicable to K-Ras G12C.
Note: This protocol may be executed substituting other cell lines to characterize inhibitors of other RAS variants, including, for example, AsPC-1 (K-Ras G12D), Capan-1 (K-Ras G12V), or NCI-H1355 (K-Ras G13C).
NCI-H358 cells were grown and maintained using media and procedures recommended by the ATCC. On the day prior to compound addition, cells were plated in 384-well cell culture plates (40 μl/well) and grown overnight in a 37° C., 5% CO2 incubator. Test compounds were prepared in 10, 3-fold dilutions in DMSO, with a high concentration of 10 mM. On the day of assay, 40 nL of test compound was added to each well of cell culture plate using an Echo550 liquid handler (LabCyte®). Concentrations of test compound were tested in duplicate. After compound addition, cells were incubated 4 hours at 37° C., 5% CO2. Following incubation, culture medium was removed and cells were washed once with phosphate buffered saline.
In some experiments, cellular pERK level was determined using the AlphaLISA SureFire Ultra p-ERK1/2 Assay Kit (PerkinElmer). Cells were lysed in 25 μL lysis buffer, with shaking at 600 RPM at room temperature. […] After a 2-hour incubation in the dark, 5 μL donor mix was added, plate was sealed, and incubated 2 hours at room temperature. Signal was read on an Envision plate reader (PerkinElmer) using standard AlphaLISA settings. Analysis of raw data was carried out in Excel (Microsoft) and Prism (GraphPad). Signal was plotted vs. the decadal logarithm of compound concentration, and IC50 was determined by fitting a 4-parameter sigmoidal concentration response model.
In other experiments, cellular pERK was determined by In-Cell Western. […] Fixed cells were washed 4 times for 5 minutes with TBS containing 0.1% Triton X-100 (TBST) and then blocked with 100 μL Odyssey blocking buffer (LI-COR) for 60 minutes at room temperature. Primary antibody (PERK, CST-4370, Cell Signaling Technology) was diluted 1:200 in blocking buffer, and 50 μL was added to each well and incubated overnight at 4° C. Cells were washed 4 times for 5 minutes with TBST. Secondary antibody (IR-800CW rabbit, LI-COR, diluted 1:800) and DNA stain DRAQ5 (LI-COR, diluted 1:2000) were added and incubated 1-2 hours at room temperature. Cells were washed 4 times for 5 minutes with TBST. Plates were scanned on a Li—COR Odyssey CLx Imager. Analysis of raw data was carried out in Excel (Microsoft) and Prism (GraphPad). Signal was plotted vs. the decadal logarithm of compound concentration, and IC50 was determined by fitting a 4-parameter sigmoidal concentration response model.
By pEC50 is commonly meant the EC50 on a negative log10 scale, so that one unit is a factor of ten. As to `CCn1c(-c2cccnc2[C@H](C)OC)c2c3cc(ccc31)-c1csc(n1)C[C@H](NC(=O)[C@H](C(C)C)N(C)C(=O)N1CC(S(=O)(=O)NC)C1)C(=O)N1CCC[C@H](N1)C(=O)OCC(C)(C)C2` [Compound A549], the pEC50 is over 5.30.

Staying with this assay, now noted: Homo sapiens; NCI-H358 cells, 4 hours; read-out: pERK EC50 (H358 KRAS G12C).
In the case of `CCn1c(-c2cccnc2[C@H](C)OC)c2c3cc(ccc31)-c1csc(n1)C[C@H](NC(=O)[C@H](C(C)C)N(C)C(=O)N1CCN(C(=O)C3(N(C)C)CC3)CC1)C(=O)N1CCC[C@H](N1)C(=O)OCC(C)(C)C2` [Compound A443], the pEC50 is over 5.30.
The same measure, in the same setting: the same measure for `CCn1c(-c2cccnc2[C@H](C)OC)c2c3cc(ccc31)-c1csc(n1)C[C@H](NC(=O)[C@H](C(C)C)N(C)C(=O)N1CC(N)(C#N)C1)C(=O)N1CCC[C@H](N1)C(=O)OCC(C)(C)C2` [Compound A456]: over 5.30; for `CCn1c(-c2cc(N3CCN(C)CC3)cnc2[C@H](C)OC)c2c3cc(ccc31)-c1csc(n1)C[C@H](NC(=O)[C@H](C(C)C)N(C)C(=O)N1CC(N(C)C)C1)C(=O)N1CCC[C@H](N1)C(=O)OCC(C)(C)C2` [Compound A477]: over 5.30.
Still for that read-out and setting: the same measure for `CCn1c(-c2cccnc2[C@H](C)OC)c2c3cc(ccc31)-c1csc(n1)C[C@H](NC(=O)[C@H](C(C)C)N(C)C(=O)N1CCCC13CCN(C)CC3)C(=O)N1CCC[C@H](N1)C(=O)OCC(C)(C)C2` [Compound A498]: over 5.30.
With `CCn1c(-c2cccnc2[C@H](C)OC)c2c3cc(ccc31)-c1csc(n1)C[C@H](NC(=O)[C@H](C(C)C)N(C)C(=O)N1CC3(CN(C)CCO3)C1)C(=O)N1CCC[C@H](N1)C(=O)OCC(C)(C)C2` [Compound A499], the pEC50 was over 5.30.
Still for that read-out and setting: the same measure for `CCn1c(-c2cccnc2[C@H](C)OC)c2c3cc(ccc31)-c1csc(n1)C[C@H](NC(=O)[C@H](C(C)C)N(C)C(=O)N1CCC[C@H]1CN(C)C)C(=O)N1CCC[C@H](N1)C(=O)OCC(C)(C)C2` [Compound A519]: over 5.30.
On the same count and under the same terms, with `CCn1c(-c2cccnc2[C@H](C)OC)c2c3cc(ccc31)-c1csc(n1)C[C@H](NC(=O)[C@H](C(C)C)N(C)C(=O)N1CCCC13CCOCC3)C(=O)N1CCC[C@H](N1)C(=O)OCC(C)(C)C2` [Compound A520] the figure was over 5.30; with `CCn1c(-c2cccnc2[C@H](C)OC)c2c3cc(ccc31)-c1csc(n1)C[C@H](NC(=O)[C@H](C(C)C)N(C)C(=O)N1CC3(CCCO3)C1)C(=O)N1CCC[C@H](N1)C(=O)OCC(C)(C)C2` [Compound A522], over 5.30; with `CCn1c(-c2cc(N3CCN(C)CC3)cnc2[C@H](C)OC)c2c3cc(ccc31)-c1csc(n1)C[C@H](NC(=O)[C@H](C1CCCC1)N(C)C(=O)N(C)C)C(=O)N1CCC[C@H](N1)C(=O)OCC(C)(C)C2` [Compound A526], over 5.30.
As to `CCn1c(-c2cccnc2[C@H](C)OC)c2c3cc(ccc31)-c1csc(n1)C[C@H](NC(=O)[C@H](C(C)C)N(C)C(=O)N1CCCC13COC3)C(=O)N1CCC[C@H](N1)C(=O)OCC(C)(C)C2` [Compound A528], the pEC50 was over 5.30.
On to `CCn1c(-c2cccnc2[C@H](C)OC)c2c3cc(ccc31)-c1csc(n1)C[C@H](NC(=O)[C@H](C(C)C)N(C)C(=O)N1CC3(CC(N(C)CCOC)C3)C1)C(=O)N1CCC[C@H](N1)C(=O)OCC(C)(C)C2` [Compound A532], for which the pEC50 is over 5.30.
Turning to `CCn1c(-c2cccnc2[C@H](C)OC)c2c3cc(ccc31)-c1csc(n1)C[C@H](NC(=O)[C@H](C(C)C)N(C)C(=O)N1CC([C@H](C)NC)C1)C(=O)N1CCC[C@H](N1)C(=O)OCC(C)(C)C2` [Compound A535], the pEC50 was over 5.30.
In the case of `CCn1c(-c2cccnc2[C@H](C)OC)c2c3cc(ccc31)-c1cc(O)cc(c1)C[C@H](NC(=O)[C@H](C(C)C)N(C)C(=O)[C@@H]1OCC[C@@H]1c1cccnc1)C(=O)N1CCC[C@H](N1)C(=O)OCC(C)(C)C2` [Compound A546], the pEC50 was over 5.30.
As for `CCn1c(-c2cc(N3CCN(C)CC3)cnc2[C@H](C)OC)c2c3cc(ccc31)-c1csc(n1)C[C@H](NC(=O)[C@H](C(C)C)N(C)C(=O)N1CCOCC1)C(=O)N1CCC[C@H](N1)C(=O)OCC(C)(C)C2` [Compound A555], the pEC50 is over 5.30.
Turning to `CCn1c(-c2cccnc2[C@H](C)OC)c2c3cc(ccc31)-c1csc(n1)C[C@H](NC(=O)[C@H](C(C)C)N(C)C(=O)N1CCC3(CCN(C)CC3)C1)C(=O)N1CCC[C@H](N1)C(=O)OCC(C)(C)C2` [Compound A565], the negative logarithm of the EC50 (pEC50) is over 5.30.
With `CCn1c(-c2cccnc2[C@H](C)OC)c2c3cc(ccc31)-c1csc(n1)C[C@H](NC(=O)[C@H](C(C)C)N(C)C(=O)N1C[C@H](N)[C@@H](F)C1)C(=O)N1CCC[C@H](N1)C(=O)OCC(C)(C)C2` [Compound A567], the pEC50 was over 5.30.
With `CCn1c(-c2cccnc2[C@H](C)OC)c2c3cc(ccc31)-c1csc(n1)C[C@H](NC(=O)[C@H](C(C)C)N(C)C(=O)N1CCOC[C@@H]1CN(C)C)C(=O)N1CCC[C@H](N1)C(=O)OCC(C)(C)C2` [Compound A572], the pEC50 is over 5.30.
With `CCn1c(-c2cccnc2[C@H](C)OC)c2c3cc(ccc31)-c1csc(n1)C[C@H](NC(=O)[C@H](C(C)C)N(C)C(=O)N1CCC[C@H](CN(C)C)C1)C(=O)N1CCC[C@H](N1)C(=O)OCC(C)(C)C2` [Compound A573], the negative-log EC50 (pEC50) was over 5.30.
In the case of `CCn1c(-c2cccnc2[C@H](C)OC)c2c3cc(ccc31)-c1csc(n1)C[C@H](NC(=O)[C@H](CC1CC1)N(C)C(=O)N1CC(OC)C1)C(=O)N1CCC[C@H](N1)C(=O)OCC(C)(C)C2` [Compound A578], the pEC50 is over 5.30.
Same read-out and setting: with `CCn1c(-c2cccnc2[C@H](C)OC)c2c3cc(ccc31)-c1csc(n1)C[C@H](NC(=O)[C@H](C(C)C)N(C)C(=O)N1CC(OC)C1)C(=O)N1CC[C@H](C)[C@H](N1)C(=O)OCC(C)(C)C2` [Compound A579, N-((2S)-1-(((6^3S,6^4S,4S,Z)-1^1-ethyl-1^2-(2-((S)-1-methoxyethyl)pyridin-3-yl)-6^4, 10, 10-trimethyl-5,7-dioxo-6^1,6^2,6^3,6^4,6^5,6^6-hexahydro-1^1H-8-oxa-2 (4,2)-thiazola-1 (5,3)-indola-6 (1,3)-pyridazinacycloundecaphane-4-yl)amino)-3-methyl-1-oxobutan-2-yl)-3-methoxy-N-methylazetidine-1-carboxamide] the figure was over 5.30; with `CCn1c(-c2cccnc2[C@H](C)OC)c2c3cc(ccc31)-c1csc(n1)C[C@H](NC(=O)[C@H](C(C)C)N(C)C(=O)N1C[C@H](OC)[C@@H](N)C1)C(=O)N1CCC[C@H](N1)C(=O)OCC(C)(C)C2` [Compound A580], over 5.30.
For the compound `CCn1c(-c2cccnc2[C@H](C)OC)c2c3cc(ccc31)-c1csc(n1)C[C@H](NC(=O)[C@H](C(C)C)N(C)C(=O)N1CCOC[C@@H]1c1ccccc1)C(=O)N1CCC[C@H](N1)C(=O)OCC(C)(C)C2` [Compound A604], the pEC50 is over 5.30.
On to `CCn1c(-c2cccnc2[C@H](C)OC)c2c3cc(ccc31)-c1csc(n1)C[C@H](NC(=O)[C@H](C(C)C)N(C)C(=O)N1[C@H](C)CN(C)C[C@H]1C)C(=O)N1CCC[C@H](N1)C(=O)OCC(C)(C)C2` [Compound A610], for which the pEC50 is over 5.30.

The record behind these values is patent publication US20250195521A1 (Revolution Medicines, Inc., priority 2020, published 2025).
